The test concerns Plasmodium falciparum. As to the kind of experiment: GSK_TCMDC: Inhibition of Plasmodium falciparum 3D7 in whole erythrocytes, using parasite LDH activity as an index of growth. Format: functional, organism-based. To be noted: Plasmodium falciparum, 3D7.
Regarding `O=C(Cn1c(CCc2cccc(F)c2F)nc(=O)c2ccccc21)N(CCN1CCCCC1)Cc1ccc(-c2ccc(C(F)(F)F)cc2)cc1`, the XC50 was 0.757 µM.

For `COC(=O)/C=C/c1ccc(CCC(C)NCC(O)c2cccc(Cl)c2)cc1` (configuration not stated), the XC50 is 0.935 µM. Take `CC1(C)[C@H]2CC[C@@H](CNc3nc(NCCc4c[nH]cn4)nc(Nc4ccc5c(c4)OCO5)n3)[C@@H]1C2`: the XC50 worked out at 0.537 µM. In turn, `CSc1ccc(NC(=O)Nc2cc(C)nc3ccccc23)cc1` showed an XC50 of 0.713 µM. The value for `CCOc1c(CNCCCNc2nc3ccccc3[nH]2)cc(I)cc1OC` was 0.663 µM.

In turn, `O=C(CSc1nc(-c2ccccc2Cl)ns1)Nc1cccc(Cl)c1` had an XC50 of 0.787 µM. The value for `O=C(Nc1cccc(C(F)(F)F)c1)c1cccc(S(=O)(=O)NCC2CCN(CC3CCCCC3)CC2)c1` was 1.47 µM; that for `CC(C)CNCc1cccc(-c2ccc(CNc3ccc4ncccc4c3)cc2)c1` was 1.06 µM; that for `Cc1cccc2nc(-c3cccc(-c4ccc(NC(=O)C5CCN(C)CC5)cc4)c3)[nH]c12` was 0.829 µM. Consider `Cc1cc(NC(=O)Nc2cccc(Cl)c2Cl)c2ccccc2n1`, for which the XC50 was found to be 0.744 µM. The value for `O=C(Cn1c(SCc2cccc(F)c2F)cc(=O)c2ccccc21)N(CCc1c[nH]cn1)Cc1ccc(-c2ccc(C(F)(F)F)cc2)cc1` was 0.801 µM; that for `CN1CCCN(Cc2cccc(-c3ccc(NC(=O)c4cccc(Cl)c4)cc3)c2)CC1` was 0.927 µM. On to `CCCCCN1CCC(NC(=O)c2ccc(C(=O)Nc3ccc(C(C)C)cc3)cc2)CC1`, for which the XC50 is 0.845 µM. The value for `Cc1c(Cc2ccc(F)cc2)c(Cl)nc2nc(N)nc(N)c12` was 0.861 µM. The same measure for `CC[C@H]1CN2CC[C@H]1C[C@H]2[C@H](O)c1cc(/C=C/c2ccccc2)nc2ccc(OC)cc12`: 0.0427 µM. The same measure for `CCc1c[nH]c2c(N3CCCCS3(=O)=O)cc(C(=O)N[C@@H](Cc3ccccc3)[C@H](O)CNCc3cccc(OC)c3)cc12`: 0.909 µM. As for `CCCOc1cc(OCCC)cc(-c2ccc(C(=O)Nc3ccc4ccc(C)nc4c3)c(=O)[nH]2)c1`, the XC50 was determined as 0.75 µM. The value for `NCc1ccc(-c2ccccc2CN(C(=O)Nc2ccccc2)C2CCN(Cc3ccccc3)CC2)cc1` was 0.88 µM; that for `COC(=O)[C@@H](NC(=O)[C@@H](Nc1ccc(C#N)c2ccccc12)C(C)(C)C)c1ccc(O)cc1` was 0.777 µM.

Turning to `Cc1ccc(NC(=O)Nc2ccccc2F)cc1-c1ccc(C(=O)Nc2ccncc2)cc1`, the XC50 amounted to 0.563 µM. The value for `Cc1ccc(C)c(NC(=O)NC2CCN(c3ccnc(Nc4ccc(F)cc4)n3)C2)c1` (configuration not stated) was 0.675 µM; that for `S=C(NN=Cc1ccccn1)NC1CC2C=CC1C2` (configuration not stated) was 0.721 µM. The value for `CN(C)c1ccc(CN2CCC(NC(=O)c3ccc(-c4ccccc4Cl)s3)CC2)cc1` was 0.899 µM; that for `CC(Cc1ccc(OCc2ccc(CCN(C)C)cc2)cc1)NCCc1cccc(Cl)c1` (configuration not stated) was 0.769 µM.

For `CCc1cc(NC2CCN(C)CC2)nc(Nc2ccc(C)cc2)n1`, the XC50 is 0.694 µM. The same measure for `Cc1cc(N2CCN(C3CCCCC3)CC2)nc2cccc(O)c12`: 0.701 µM; for `Cc1cccc2nc(-c3ccc(-c4cccc(NC(=O)NCc5ccccc5)c4)cc3)[nH]c12`: 0.777 µM; for `CCc1ccc(CN(CCCOc2cccc(CC(=O)NCc3c[nH]cn3)c2)Cc2ccc(-n3ccnc3)cc2)cc1`: 0.979 µM. The value for `CC(C)Oc1cc2c(cc1NS(=O)(=O)c1ccc(-c3ccc(Cl)cc3)cc1F)CCN(C)CC2` was 0.919 µM.

Regarding `COC(=O)CCCOc1cc(Cc2cnc(N)nc2N)cc(OC)c1OC`, the XC50 stood at 0.767 µM.

Molecule `Cc1cc(NCCc2ccccc2)nc(NC(=N)Nc2ccc(Cl)cc2)n1` yielded an XC50 of 0.232 µM. The value for `O=C(c1cc(C(=O)Nc2ccc(F)cc2)c(=O)n(-c2ccc(F)cc2)c1)c1cc(Cl)ccc1O` was 0.219 µM; that for `O=C(Nc1ccc(OC2CCN(Cc3ccc(F)cc3)CC2)c(Cl)c1)c1cccs1` was 0.318 µM.

For `Nc1cnc(C#Cc2cc3ncnc(N(CCN4CCOCC4)c4ccc(OCc5cccc(F)c5)c(Cl)c4)c3s2)cn1`, the XC50 was determined as 1.05 µM.

In the case of `COc1ccc(-c2ccc(NC(=O)c3ccc(Cl)cc3)cc2)cc1CN1CCCN(C)CC1`, the XC50 is 0.648 µM. The value for `O=C(NCCN1CCCC1)c1cccc(-c2ccc(-c3nc4cc(F)ccc4[nH]3)s2)c1` was 1.53 µM; that for `CC(C)(C)c1nn(-c2ccccc2)c2[nH]c(=O)c(CNC3CCCCC3)cc12` was 1.25 µM; that for `Nc1c2c(nc3ccc(NC(=O)CCCCCc4ccccc4)cc13)CCCC2` was 0.438 µM.

As to `N=C(N)NN=CC(=O)Nc1ccc(Br)cc1`, the XC50 came out at 0.884 µM. The value for `Cc1ccc(Nc2nc3cc(N(C)c4ccnc(Nc5cccc(CS(C)(=O)=O)c5)n4)ccc3o2)cc1` was 0.973 µM; that for `COc1ccc(C(=O)N2CCC(C(=O)NC(C)c3ccc(-n4ccnc4)cc3)CC2)c2ccccc12` (configuration not stated) was 1.13 µM. The value for `Cc1ccoc1C(=O)Nc1ccc(-c2cccc(-c3nc4cccc(C)c4[nH]3)c2)cc1` was 0.726 µM; that for `CCN(Cc1ccccc1)CC(O)c1ccc(Cl)c(Cl)c1` (configuration not stated) was 0.182 µM; that for `CCCCCCCCCCNCC(O)c1ccc(O)c(C(=O)OC)c1` (configuration not stated) was 0.717 µM. The same measure for `Oc1ccc2ncnc(Nc3ccc(OCc4cccc(F)c4)c(Cl)c3)c2c1`: 0.993 µM.

For `CN(C)CCCOc1ccc(CN2CC[C@H](NC(=O)c3ccc(Cl)c(Cl)c3)C2)c2ccccc12`, the XC50 is 0.879 µM. The same measure for `CN(C)CCOc1cc(NC(=O)/C=C/c2cccc3ccccc23)ccc1I`: 1.26 µM; for `O=[N+]([O-])c1cc(/C=N/Nc2nc3ccccc3[nH]2)ccc1O`: 0.954 µM; for `CCCCCCCCCc1c(C)[nH]c2ccccc2c1=O`: 0.163 µM. The same measure for `Cc1cc(N2CCCC2)nc(Nc2ccc(NC(=O)c3ccccc3F)cc2)n1`: 0.922 µM; for `Cc1nc(N/C(N)=N/C(=O)NC2CCCCC2)nc2ccccc12`: 0.791 µM; for `N=C(N)c1ccc(NC(=O)c2cc(Sc3ccc(O)c(C(=O)Nc4ccc(C(=N)N)cc4)c3)ccc2O)cc1`: 0.122 µM.

As for `COc1ccccc1C1CCN(C2CCC(NC(=O)c3cc(-c4ccc(Cl)cc4)cs3)CC2)CC1` (configuration not stated), the XC50 is 0.383 µM. With `COc1ccc(NC(=O)/C=C/c2ccccc2Cl)cc1OCCN1CCC(NC2CC2)CC1`, the XC50 was determined as 0.842 µM. Take `COc1ccc2nccc([C@@H](O)CN3CCC(NCc4cc5c(cc4F)SCC(=O)N5)CC3)c2n1`: the XC50 was determined as 1 µM. The same measure for `O=S(=O)(NCCN1CCCC1)c1ccc(-c2ccc(CNCc3ccsc3)cc2)s1`: 0.832 µM; for `COc1ccccc1CN1CCC(NC(=O)c2ccc(-c3ccc(N(C)C)cc3)s2)CC1`: 0.958 µM.

Molecule `O=C(/C=C/c1ccc(Cl)c(Cl)c1)NCCCCCN1CCC(NC(=O)Nc2ccc(Cl)cc2Cl)CC1` came in with an XC50 of 0.64 µM.

As to `COc1ccc2c(NN=Cc3cccc(Cl)c3)ccnc2c1`, the XC50 was found to be 0.716 µM. The molecule `Cc1sc(N2CCN(C)CC2)nc1C(=O)Nc1ccc(F)cc1C(F)(F)F` registered an XC50 of 1.07 µM.

Consider `Nc1nc2c(ncn2COC2COP(=O)(O)OC2)c(=O)[nH]1` (configuration not stated), for which the XC50 was 0.454 µM.

The molecule `CCc1ccc(C2CCN(CCCCNC(=O)c3ccc(NC(=O)c4ccc(Cl)cc4)cc3)CC2)c(OCCO)c1` registered an XC50 of 1.39 µM. The value for `CC1(C)C2C=C(CN3CCC(NC(=O)Nc4ccc(Cl)c(Cl)c4)CC3)C1CC2` (configuration not stated) was 0.761 µM. The same measure for `CCNc1cc(C)nc(Nc2ccc(C)cc2)n1`: 0.73 µM; for `O=C(c1cc(C(F)(F)F)cc(C(F)(F)F)c1)N1CCC(CCN2CCC3(CC2)C(=O)NCN3c2ccccc2)CC1Cc1ccc(Cl)c(Cl)c1` (configuration not stated): 0.656 µM. The same measure for `Clc1ccc(Cc2nc3ccccc3[nH]2)cc1Cl`: 0.246 µM.

In turn, `CN(CCc1ccccn1)c1cccc2c1nc(-c1cccnc1)n2CCNCc1ccccc1` had an XC50 of 1.06 µM. The value for `COCCOc1ccc(Nc2nccc(-c3c(-c4cccc(NC(=O)c5c(F)cccc5F)c4)nn4ccccc34)n2)cc1Cl` was 0.356 µM; that for `O=C(/C=C/c1ccc(Cl)c(Cl)c1)NC1CCN(CCCNC(=O)c2cccc(Cl)c2)CC1` was 0.659 µM. The value for `CC(=O)C1(c2ccccc2)CCN(CCC(NC(=O)c2cc(C(F)(F)F)cc(C(F)(F)F)c2)c2ccc(Cl)c(Cl)c2)CC1` (configuration not stated) was 1.19 µM.

`O=c1cc(NCCCNCc2cccc(C(F)(F)F)c2Cl)[nH]c2ccccc12` had an XC50 of 0.804 µM. The same measure for `CN1CCCc2ccc(NC(=O)Nc3ccc(-c4ccccc4)cc3)cc2C1`: 0.38 µM. The same measure for `CC(C)(C)c1ccc(S(=O)(=O)Nc2cc(Cl)ccc2Cn2ccc(N3CCNCC3)nc2=O)cc1`: 0.827 µM. As for `Cc1nc2nc(N)nc(N)c2c(C)c1Cc1cccc(F)c1`, the XC50 came to 0.341 µM.

`CNC(=O)c1ccccc1Nc1nc(Nc2ccc(C(=O)O)cc2)ncc1Cl` showed an XC50 of 0.95 µM. The value for `N#Cc1cccc(NC(=O)Nc2cccc(-c3ccc(-c4nc5cc(C(F)(F)F)ccc5[nH]4)cc3)c2)c1` was 0.247 µM; that for `CN1CCN(CC2(Nc3nccc(NCCc4cn(C)c5ccccc45)n3)CCCCC2)CC1` was 1.81 µM; that for `Nc1ncc(-c2ccc(Cl)c(Cl)c2)c(N)n1` was 0.727 µM. `COc1ccc(-c2cc(C(=O)N[C@@H](Cc3ccccc3)C(=O)NCCN3CCCCC3)ccc2O)cc1` came in with an XC50 of 0.792 µM. The value for `O=S(=O)(c1cccc(C(F)(F)F)c1)N1CCC(CO)(Cc2cccc(C(F)(F)F)c2)CC1` was 0.964 µM; that for `Cc1cc(C(=O)NC2CCN(CC3(c4ccc(Cl)cc4)CCC3)CC2)on1` was 0.092 µM; that for `COc1ccc(-c2ccc3c(-c4ccc(F)cc4)cnc(N)c3c2)cn1` was 0.388 µM.

Molecule `Cc1ccc2c(c1)c(C1CCN(C(=O)c3ccc([N+](=O)[O-])o3)CC1)cn2C` had an XC50 of 0.746 µM. Consider `CCn1ccc2c(N3CCCS3(=O)=O)cc(C(=O)N[C@@H](Cc3ccccc3)[C@H](O)CNC3CCCCC3)cc21`, for which the XC50 is 0.137 µM. The same measure for `O=C(O[C@H]1CN[C@H](C#Cc2cc3c(Nc4ccc(OCc5cccc(F)c5)c(Cl)c4)ncnc3s2)C1)N1CCCC1`: 0.707 µM; for `COc1cccc(CNC(=O)[C@@H]2CN(C(=O)c3ccccc3)CCN2)c1`: 1.16 µM. The same measure for `Cc1nc(N/C=C/c2ccc(O)cc2)cc(N2CCCC2)n1`: 1.07 µM.

The values are drawn from ChEMBL document CHEMBL1157539, “Thousands of chemical starting points for antimalarial lead identification” (Nature, 2010).
